Read-outs that look alike come from different tables or passages of the source.
How the values were obtained:
human CB2 receptor = molecular target: T1, human CB2 receptor (Homo sapiens, UniProt P34972); test: CB2 radioligand competitive binding assay ([3H]CP 55,940 displacement); conditions: for Selectivity CB2: fold difference between CB1 and CB2 binding, printed in the column of the receptor with higher affinity, 1.00 in both = about the same affinity
T1 construct: host or cells: CHO-K1 (stably transfected cell line, membranes prepared in house)
T1 sequence (P34972 whole entry): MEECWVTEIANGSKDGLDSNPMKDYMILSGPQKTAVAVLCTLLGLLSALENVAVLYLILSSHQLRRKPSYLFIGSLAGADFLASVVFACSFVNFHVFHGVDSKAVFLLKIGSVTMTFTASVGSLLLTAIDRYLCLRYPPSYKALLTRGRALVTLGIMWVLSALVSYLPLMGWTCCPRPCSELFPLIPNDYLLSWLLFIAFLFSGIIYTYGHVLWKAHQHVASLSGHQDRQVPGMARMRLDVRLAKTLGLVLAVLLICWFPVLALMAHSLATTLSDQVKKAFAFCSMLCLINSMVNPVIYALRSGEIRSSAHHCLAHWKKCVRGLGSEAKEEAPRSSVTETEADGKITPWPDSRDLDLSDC
Experimental: Compounds of the present disclosure were tested for CB1 receptor binding affinity and for CB2 receptor binding affinity. As used herein, “binding affinity” is represented by the IC50 value, which was experimentally determined as described herein. The lower the IC50 value the higher the binding affinity. A compound of the present disclosure may be said to have “binding selectivity” if it has a higher binding affinity for one receptor compared to the other.
The membranes were prepared from CHO-K1 (Chinese hamster ovary) cells stably transfected with the human CB2 receptor (Cat. #ES-111-C; Perkin Elmer, Boston, Mass.). The cells were grown adherently and maintained in Ham's F12 medium containing 10% fetal bovine serum (FBS), penicillin, streptomycin and geneticin (G418) at 37° C. in a humid atmosphere of 5% CO2 following the manufacturer's instructions.
For membrane preparation the cells were washed with PBS and scraped off the plates in cold homogenization buffer (25 mM HEPES (pH 7.4), 2 mM EDTA) containing protease inhibitor cocktail (Sigma Cat. #P8340). The cell suspension was homogenized with a Pro-PK-01200D Polytron Homogenizer (Pro Scientific) and then centrifuged for 30 min at 120,000×g. The supernatant was discarded and the pellet was re-suspended in the homogenization buffer and stored at −80° C. until the time of use.
In this experiment, 3H radiolabeled CP 55,940, i.e. [3H]CP 55,940 (Perkin Elmer, Boston, Mass.), was used as a radioligand for the CB2 receptor to determine the binding affinity of compounds for the CB2 receptor (Scheme 3; above).
The competition binding experiments (single dose and dose-response) were performed by incubating 0.6 nM of [3H]CP55,940 (specific activity 101 Ci/mmol, Perkin Elmer) and different concentrations of compounds disclosed herein with membranes prepared as above from CHO-K1 cells expressing human CB2 receptor (1 μg of protein/well), 50 mM Tris-HCl (pH 7.4), 5 mM MgCl2, 1 mM CaCl2, and 2 mg/mL BSA.
For the single dose experiments, the compound stocks (usually 10 mM in DMSO) were diluted to working stocks in the binding buffer to give the final compound concentrations of 10 μM and 1 μM. For the dose-response experiments the test compounds were sequentially diluted to provide the desired concentration range for the IC50 determination. In each case the compounds were pre-incubated with the membrane for 20 min, before adding the radioligand.
After incubation with the radioligand for 60 min at 37° C., the incubation was terminated by rapid filtration of assay mixture through MultiScreen®HTS^+ 96-well filter plates (Millipore, Cat. #MSFCNXB), pre-soaked for 60 min with 50 mM Tris-HCl (pH 7.4) containing 0.33% polyethylenimine (PEI). The nonspecific binding (NSB) was determined in the presence of 10 μM unlabelled CP55,940. After drying the filter plate at 50° C. for at least 60 min, the filter-bound radioactivity was determined by scintillation spectrometry using the 1450 MicroBeta Plate Counter (Perkin Elmer, Boston, Mass.). From the dose-response experiments, the IC50 values were determined (see Table 1, CB2 IC50).
Where the test compound had about the same affinity for both receptors, this is represented by a value of 1.00 in the column for both receptors.

human CB1 receptor = molecular target: T2, human CB1 receptor (Homo sapiens, UniProt P21554); test: CB1 radioligand competitive binding assay ([3H]CP 55,940 displacement); conditions: for Selectivity CB1: fold difference between CB1 and CB2 binding, printed in the column of the receptor with higher affinity, 1.00 in both = about the same affinity
T2 construct: host or cells: CHO-K1 (stably transfected cell line, membranes prepared in house)
T2 sequence (P21554 whole entry): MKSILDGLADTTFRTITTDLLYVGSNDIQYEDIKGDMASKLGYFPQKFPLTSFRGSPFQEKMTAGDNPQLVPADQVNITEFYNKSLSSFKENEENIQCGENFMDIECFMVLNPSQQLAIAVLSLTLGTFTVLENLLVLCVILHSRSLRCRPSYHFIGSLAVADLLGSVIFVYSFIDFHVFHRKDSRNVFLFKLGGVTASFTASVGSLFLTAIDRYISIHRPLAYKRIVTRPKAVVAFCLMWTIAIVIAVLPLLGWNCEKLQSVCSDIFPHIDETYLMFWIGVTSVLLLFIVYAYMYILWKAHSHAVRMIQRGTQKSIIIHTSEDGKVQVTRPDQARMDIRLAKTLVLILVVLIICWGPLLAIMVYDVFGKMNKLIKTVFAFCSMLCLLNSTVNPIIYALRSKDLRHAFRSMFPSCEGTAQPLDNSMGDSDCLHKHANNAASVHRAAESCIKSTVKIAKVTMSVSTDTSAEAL

[1] = 0.6 nM [3H]CP 55,940, membranes from CHO-K1 cells expressing human CB2 receptor, dose-response, read-out: CB2 IC50
[2] = 0.8 nM [3H]CP 55,940, membranes from CHO-K1 cells expressing human CB1 receptor, dose-response, read-out: CB1 IC50

## CCCCCc1cc(OCOC(=O)OCC)c(CC=C(C)CCC=C(C)C)c(OCOC(=O)OCC)c1 [4′, ((2-(3,7-dimethylocta-2,6-dien-1-yl)-5-pentyl-1,3-phenylene)bis(oxy))bis(methylene) diethyl bis(carbonate)]
Human CB2 receptor; [1]
  IC50: 500 to 990 nM
Human CB2 receptor
  Selectivity CB2: 24.69 fold
Human CB1 receptor; [2]
  IC50: > 5000 nM

## CCCCCc1cc(OCOC(=O)C(C)(C)C)c(CC=C(C)CCC=C(C)C)c(OCOC(=O)C(C)(C)C)c1 [7′, ((2-(3,7-dimethylocta-2,6-dien-1-yl)-5-pentyl-1,3-phenylene)bis(oxy))bis(methylene) bis(2,2-dimethylpropanoate)]
Human CB2 receptor; [1]
  IC50: > 5000 nM
Human CB2 receptor
  Selectivity CB2: 1.00 fold
Human CB1 receptor; [2]
  IC50: > 5000 nM
Human CB1 receptor
  Selectivity CB1: 1.00 fold

## CCCCCc1cc(OCOC2CCCCC2)c(CC=C(C)CCC=C(C)C)c(OCOC2CCCCC2)c1 [18′, ((((2-(3,7-dimethylocta-2,6-dien-1-yl)-5-pentyl-1,3-phenylene)bis(oxy))bis(methylene))bis(oxy))dicyclohexane]
Human CB2 receptor; [1]
  IC50: > 5000 nM
Human CB2 receptor
  Selectivity CB2: 1.00 fold
Human CB1 receptor; [2]
  IC50: > 5000 nM
Human CB1 receptor
  Selectivity CB1: 1.00 fold

## CCCCCCC(C)(C)c1cc(OCOC(=O)C(C)(C)C)c(CC=C(C)CCC=C(C)C)c(OCOC(=O)C(C)(C)C)c1 [22′, ((2-(3,7-dimethylocta-2,6-dien-1-yl)-5-(2-methyloctan-2-yl)-1,3-phenylene)bis(oxy))bis(methylene) bis(2,2-dimethylpropanoate)]
Human CB2 receptor; [1]
  IC50: 1000 to 4990 nM
Human CB2 receptor
  Selectivity CB2: 7.14 fold
Human CB1 receptor; [2]
  IC50: > 5000 nM

## CCCCCc1cc(O)c(CC=C(C)CCC=C(C)C)c(OCOC(=O)OCC)c1 [Compound 4, (2-(3,7-dimethylocta-2,6-dien-1-yl)-3-hydroxy-5-pentylphenoxy)methyl ethyl carbonate]
Human CB2 receptor; [1]
  IC50: < 500 nM
Human CB2 receptor
  Selectivity CB2: 7.82 fold
Human CB1 receptor; [2]
  IC50: 1000 to 4990 nM

## CCCCCc1cc(O)c(CC=C(C)CCC=C(C)C)c(OCOC(=O)C(C)(C)C)c1 [Compound 7, (2-(3,7-dimethylocta-2,6-dien-1-yl)-3-hydroxy-5-pentylphenoxy)methyl pivalate]
Human CB2 receptor; [1]
  IC50: < 500 nM
Human CB2 receptor
  Selectivity CB2: 16.02 fold
Human CB1 receptor; [2]
  IC50: 500 to 990 nM

## CCCCCc1cc(O)c(C/C=C(\C)CCC=C(C)C)c(OCOCC)c1 [Compound 16, 2-(3,7-dimethylocta-2,6-dien-1-yl)-3-(ethoxymethoxy)-5-pentylphenol]
Human CB2 receptor; [1]
  IC50: 1000 to 4990 nM
Human CB2 receptor
  Selectivity CB2: 2.83 fold
Human CB1 receptor; [2]
  IC50: > 5000 nM

## CCCCCc1cc(O)c(C/C=C(\C)CCC=C(C)C)c(OCOCCOC)c1 [Compound 17, 2-(3,7-dimethylocta-2,6-dien-1-yl)-3-((2-methoxyethoxy)methoxy)-5-pentylphenol]
Human CB2 receptor
  IC50: 1000 to 4990 nM
  Selectivity CB2: 4.00 fold
Human CB1 receptor
  IC50: 1000 to 4990 nM

## CCCCCc1cc(O)c(CC=C(C)CCC=C(C)C)c(OCOC2CCCCC2)c1 [Compound 18, 3-((cyclohexyloxy)methoxy)-2-(3,7-dimethylocta-2,6-dien-1-yl)-5-pentylphenol]
Human CB2 receptor; [1]
  IC50: < 500 nM
Human CB2 receptor
  Selectivity CB2: 28.00 fold
Human CB1 receptor; [2]
  IC50: > 5000 nM

## CCCc1cc(O)c(C/C=C(\C)CCC=C(C)C)c(OCOC(=O)C(C)(C)C)c1 [Compound 19, (2-(3,7-dimethylocta-2,6-dien-1-yl)-3-hydroxy-5-propylphenoxy)methyl pivalate]
Human CB2 receptor; [1]
  IC50: < 500 nM
Human CB2 receptor
  Selectivity CB2: 3.89 fold
Human CB1 receptor; [2]
  IC50: 500 to 990 nM

## CCCc1cc(O)c(C/C=C(\C)CCC=C(C)C)c(OCOC(=O)OCC)c1 [Compound 20, (2-(3,7-dimethylocta-2,6-dien-1-yl)-3-hydroxy-5-propylphenoxy)methyl ethyl carbonate]
Human CB2 receptor; [1]
  IC50: 1000 to 4990 nM
Human CB2 receptor
  Selectivity CB2: 1.80 fold
Human CB1 receptor; [2]
  IC50: 1000 to 4990 nM

## CCCCCCC(C)(C)c1cc(O)c(C/C=C(\C)CCC=C(C)C)c(OCOC(=O)OCC)c1 [Compound 21, (2-(3,7-dimethylocta-2,6-dien-1-yl)-3-hydroxy-5-(2-methyloctan-2-yl)phenoxy)methyl ethyl carbonate]
Human CB2 receptor
  IC50: < 500 nM
  Selectivity CB2: 6.92 fold
Human CB1 receptor
  IC50: 500 to 990 nM

## CCCCCCC(C)(C)c1cc(O)c(CC=C(C)CCC=C(C)C)c(OCOC(=O)C(C)(C)C)c1 [Compound 22, (2-(3,7-dimethylocta-2,6-dien-1-yl)-3-hydroxy-5-(2-methyloctan-2-yl)phenoxy)methyl pivalate]
Human CB2 receptor; [1]
  IC50: < 500 nM
Human CB2 receptor
  Selectivity CB2: 7.25 fold
Human CB1 receptor; [2]
  IC50: 1000 to 4990 nM

## CCCCCc1cc(O)c(C/C=C(\C)CCC=C(C)C)c(OCN(C(=O)OC)c2ccccc2)c1 [Compound 23, methyl ((2-(3,7-dimethylocta-2,6-dien-1-yl)-3-hydroxy-5-pentylphenoxy)methyl)(phenyl)carbamate]
Human CB2 receptor; [1]
  IC50: < 500 nM
Human CB2 receptor
  Selectivity CB2: 1.37 fold
Human CB1 receptor; [2]
  IC50: < 500 nM

## dimethyl (((5-butyl-2-(3,7-dimethylocta-2,6-dien-1-yl)-1,3-phenylene)bis(oxy))bis(methylene)) bis(phenylcarbamate) [23′]
Human CB2 receptor; [1]
  IC50: > 5000 nM
Human CB2 receptor
  Selectivity CB2: 1.88 fold
Human CB1 receptor; [2]
  IC50: > 5000 nM

— patent publication US20230059582A1, “CANNABINOID DERIVATIVES” (CANOPY GROWTH CORPORATION, priority 2019, published 2023)
